Assay results published in patent US10124004B2, “Pyrido[3,4-d]pyrimidine derivative and pharmaceutically acceptable salt thereof” (Teijin Pharma Limited, priority 2015, dated 2018).

Tests used:
CDK4/cyclin D3 = biological target: T1, CDK4/cyclin D3 (Homo sapiens, UniProt P11802); assay: Human CDK4/cyclin D3 inhibitory activity (QS S Assist CDK4/Cyclin D3_FP Kit, IMAP fluorescence polarization); assay type: biochemical; details: 50% inhibitory concentration against CDK4/cyclin D3, given as class symbol
T1 construct: purchased Carna Biosciences, Inc. QS S Assist CDK4/Cyclin D3_FP Kit
T1 sequence (P11802 whole entry): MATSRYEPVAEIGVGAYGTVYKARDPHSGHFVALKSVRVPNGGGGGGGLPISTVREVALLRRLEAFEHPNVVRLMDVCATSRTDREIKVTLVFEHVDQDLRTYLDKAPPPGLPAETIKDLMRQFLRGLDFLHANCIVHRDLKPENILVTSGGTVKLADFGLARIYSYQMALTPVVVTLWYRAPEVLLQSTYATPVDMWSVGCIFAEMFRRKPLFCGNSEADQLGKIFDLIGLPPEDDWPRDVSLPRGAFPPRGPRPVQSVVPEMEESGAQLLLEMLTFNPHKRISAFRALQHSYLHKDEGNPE
T1 sequence (P30281 whole entry partner): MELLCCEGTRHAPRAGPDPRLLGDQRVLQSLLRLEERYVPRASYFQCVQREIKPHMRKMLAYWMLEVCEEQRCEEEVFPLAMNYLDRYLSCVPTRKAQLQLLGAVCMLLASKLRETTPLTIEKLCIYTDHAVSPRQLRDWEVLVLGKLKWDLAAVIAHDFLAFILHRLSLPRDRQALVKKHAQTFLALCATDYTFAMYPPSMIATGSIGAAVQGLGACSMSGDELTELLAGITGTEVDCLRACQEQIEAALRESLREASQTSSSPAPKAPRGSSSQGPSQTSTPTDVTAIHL
Method in brief: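 Percent inhibition, relative to DMSO with and without enzyme, was curve-fitted to give IC50 from polarization (ex 485, em 535 nm). The 45-min room-temperature reaction used 12.5-25 ng/well enzyme, kit ATP/substrate/metal mix, and HEPES pH 7.4 buffer with Tween20 and DTT, followed by 30-min IMAP binding in the dark.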

CDK2/cyclin A2 = biological target: T2, CDK2/cyclin A2 (Homo sapiens, UniProt P24941); assay: Human CDK2/cyclin A2 inhibitory activity (QS S Assist CDK2/Cyclin A2_FP Kit, IMAP fluorescence polarization); assay type: biochemical; details: 50% inhibitory concentration against CDK2/cyclin A2, given as class symbol
T2 construct: purchased Carna Biosciences, Inc. QS S Assist CDK2/Cyclin A2_FP Kit
Method in brief: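 Kinase activity read as fluorescence polarization (485/535 nm) after phosphorylated fluorescent substrate binds IMAP reagent (30 min, RT, dark). Enzyme (2.5 ng/well) reacted 60 min at RT with ATP/substrate/metal in HEPES pH 7.4 buffer with Tween 20 and DTT; no-enzyme wells define 0% activity; IC50 by curve fit.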

| IC50 (CDK4/cyclin D3) [nM] | IC50 (CDK2/cyclin A2) [nM] | Structure (SMILES) |
| --- | --- | --- |
| < 10 | ≥ 100 | CC(C)Sc1nc([C@@H](C)O)cc2cnc(Nc3ccc(N4CCNCC4=O)cn3)nc12 [Compound 744] |
| < 10 | ≥ 100 | CC(=O)N1CCN(c2ccc(Nc3ncc4cc([C@@H](C)O)nc(NC(C)C)c4n3)nn2)CC1 [Compound 745] |
| < 10 | ≥ 100 | CC(C)Nc1nc([C@@H](C)O)cc2cnc(Nc3ccc(N4CCN(C(=O)C(C)C)CC4)nn3)nc12 [Compound 746] |
| 10 to 100 | ≥ 100 | CO[C@H](C)c1cc2cnc(Nc3ccc(N4CCN(C(=O)C(C)C)CC4)nn3)nc2c(NC(C)C)n1 [Compound 747] |
| 10 to 100 | ≥ 100 | CO[C@H](C)c1cc2cnc(Nc3ccc(N4CCN(C(=O)OC(C)C)CC4)nn3)nc2c(NC(C)C)n1 [Compound 748] |
| < 10 | ≥ 100 | CC(C)Nc1nc([C@@H](C)O)c(Cl)c2cnc(Nc3ccc(N4CCCNCC4=O)cn3)nc12 [Compound 750] |
| < 10 | ≥ 100 | C[C@@H](O)c1nc(N[C@H]2CCCOC2)c2nc(Nc3ccc(N4CCNCC4=O)cn3)ncc2c1Cl [Compound 751] |
| 10 to 100 | ≥ 100 | COC[C@H](C)Nc1nc([C@@H](C)O)cc2cnc(Nc3ccc(N4CCNCC4=O)cn3)nc12 [Compound 752] |
| < 10 | ≥ 100 | CC(C)Nc1nc([C@@H](C)O)c(Cl)c2cnc(Nc3ccc(N4CCC(O)CC4)nn3)nc12 [Compound 753] |
| 10 to 100 | ≥ 100 | COC[C@H](C)Nc1nc([C@@H](C)O)cc2cnc(Nc3ccc(OCCN(C)C)cn3)nc12 [Compound 754] |
| < 10 | ≥ 100 | CNCCOc1ccc(Nc2ncc3c(Cl)c([C@@H](C)O)nc(N[C@H]4CCCOC4)c3n2)nc1 [Compound 755] |
| 10 to 100 | ≥ 100 | COC[C@H](C)Nc1nc([C@@H](C)O)c(Cl)c2cnc(Nc3ccc(N4CCNCC4=O)cn3)nc12 [Compound 756] |
| < 10 | ≥ 100 | CNCCOc1ccc(Nc2ncc3cc([C@@H](C)O)nc(N[C@@H](C)COC)c3n2)nc1 [Compound 757] |
| 10 to 100 | ≥ 100 | CNCCOc1ccc(Nc2ncc3c(Cl)c([C@@H](C)O)nc(N[C@@H](C)COC)c3n2)nc1 [Compound 758] |
| 10 to 100 | ≥ 100 | COC[C@H](C)Nc1nc([C@@H](C)O)c(Cl)c2cnc(Nc3ccc(N4CCC(O)CC4)nn3)nc12 [Compound 759] |
| 10 to 100 | ≥ 100 | COC[C@H](C)Nc1nc([C@@H](C)O)cc2cnc(Nc3ccc(N4CCC(O)CC4)nn3)nc12 [Compound 760] |

The next lines start with the molecule.

| Structure (SMILES) | IC50 (CDK4/cyclin D3) [nM] | IC50 (CDK2/cyclin A2) [nM] |
| --- | --- | --- |
| CC(C)Nc1nc([C@H](C)F)cc2cnc(Nc3ccc(N4CCNCC4)nn3)nc12 [Compound 698] | < 10 | ≥ 100 |
| CC(C)Nc1nc([C@@H](C)O)cc2cnc(Nc3ccc(CN4CCN(C(C)(C)CO)CC4)cn3)nc12 [Compound 700] | < 10 | ≥ 100 |
| CC(C)Nc1nc([C@@H](C)O)cc2cnc(Nc3ccc(N4CCN(C(C)(C)CO)CC4)nn3)nc12 [Compound 701] | < 10 | ≥ 100 |
| CC(C)Nc1nc([C@@H](C)O)cc2cnc(Nc3ccc(N4CCC(OCC(=O)O)CC4)nn3)nc12 [Compound 702] | 10 to 100 | ≥ 100 |
| CC(C)Nc1nc([C@@H](C)O)c(Cl)c2cnc(Nc3ccc(N4CCC(OCC(=O)O)CC4)nn3)nc12 [Compound 703] | 10 to 100 | ≥ 100 |
| CC(C)Nc1nc([C@@H](C)O)cc2cnc(Nc3ccc(C4CNCCO4)nn3)nc12 (stereo partly shown) [Compound 706] | < 10 | ≥ 100 |
| CC(C)Nc1nc(C(C)O)cc2cnc(Nc3ccc(OC4CCNCC4F)cn3)nc12 (stereo not shown) [Compound 708] | < 10 | ≥ 100 |
| CO[C@H](C)c1cc2cnc(Nc3ccc(N4CCNCC4)nn3)nc2c(NC(C)(C)C)n1 [Compound 709] | < 10 | ≥ 100 |
| CO[C@H](C)c1cc2cnc(Nc3ccc(N4CCNCC4)nn3)nc2c(NCC(C)(C)C)n1 [Compound 710] | < 10 | ≥ 100 |
| COC1CCC(Nc2nc([C@@H](C)OC)cc3cnc(Nc4ccc(N5CCNCC5)nn4)nc23)CC1 (stereo partly shown) [Compound 711] | < 10 | ≥ 100 |
| CO[C@H](C)c1cc2cnc(Nc3ccc(N4CCNCC4)nn3)nc2c(NC2CCCC2)n1 [Compound 712] | < 10 | ≥ 100 |
| CO[C@H](C)c1cc2cnc(Nc3ncc(N4CCNCC4=O)cc3F)nc2c(NC(C)C)n1 [Compound 715] | 10 to 100 | ≥ 100 |
| CC(C)Nc1nc([C@@H](C)O)cc2cnc(Nc3cnc(N4CCNCC4=O)cn3)nc12 [Compound 716] | 10 to 100 | ≥ 100 |
| COC(=O)CNCCNc1ccc(Nc2ncc3cc([C@@H](C)O)nc(NC(C)C)c3n2)nc1 [Compound 717] | 10 to 100 | ≥ 100 |
| CC(C)Nc1nc([C@@H](C)F)cc2cnc(Nc3ccc(N4CCNCC4)nn3)nc12 [Compound 718] | 10 to 100 | ≥ 100 |
| C[C@@H](O)c1nc(N[C@H]2CCCOC2)c2nc(Nc3ccc(OCCN(C)C)cn3)ncc2c1Cl [Compound 719] | < 10 | ≥ 100 |
| CC(C)Nc1nc([C@@H](C)O)cc2cnc(Nc3ccc(N4CCN(C[C@H](C)O)CCC4=O)cn3)nc12 [Compound 720] | < 10 | ≥ 100 |

| Structure (SMILES) | IC50 (CDK4/cyclin D3) [nM] | IC50 (CDK2/cyclin A2) [nM] |
| --- | --- | --- |
| CC(C)Nc1nc([C@@H](C)O)cc2cnc(Nc3ccc(N4CCN(C[C@@H](C)O)CCC4=O)cn3)nc12 [Compound 721] | < 10 | ≥ 100 |
| CC(C)Nc1nc([C@@H](C)O)cc2cnc(Nc3ccc(N4CCC(NC(C)C)CC4)nn3)nc12 [Compound 722] | < 10 | ≥ 100 |
| CC(C)Nc1nc([C@@H](C)O)cc2cnc(Nc3ccc(N4CCC(O)C5(CC5)C4)nn3)nc12 (stereo partly shown) [Compound 723] | < 10 | ≥ 100 |
| CO[C@H](C)c1cc2cnc(Nc3ccc(N4CCNCC4)nn3)nc2c(NC2CCC(C)(C)CC2)n1 [Compound 726] | < 10 | ≥ 100 |
| CO[C@H](C)c1cc2cnc(Nc3ccc(N4CCNCC4)nn3)nc2c(NC2CCC(C)(C)OC2)n1 (stereo partly shown) [Compound 727] | < 10 | ≥ 100 |
| CO[C@H](C)c1cc2cnc(Nc3ccc(N4CCNCC4)nn3)nc2c(SC(C)C)n1 [Compound 728] | < 10 | ≥ 100 |
| CC(C)Nc1nc([C@@H](C)O)cc2cnc(Nc3ccc(N4CCN=CC4=O)cn3)nc12 [Compound 731] | < 10 | ≥ 100 |
| CC(C)Nc1nc([C@@H](C)O)cc2cnc(Nc3ccc(N4CCNC(C(C)C)C4=O)cn3)nc12 (stereo partly shown) [Compound 732] | < 10 | ≥ 100 |
| CC(C)Nc1nc([C@@H](C)O)cc2cnc(Nc3ccc(N4CCNC5(CC5)C4=O)cn3)nc12 [Compound 733] | 10 to 100 | ≥ 100 |
| CC(=O)c1cc2cnc(Nc3ccc(OCCN(C)C)cn3)nc2c(NC(C)C)n1 [Compound 734] | < 10 | ≥ 100 |
| CN[C@H]1CC[C@H](Oc2ccc(Nc3ncc4cc([C@@H](C)O)nc(NC(C)C)c4n3)nc2)CC1 [Compound 737] | < 10 | ≥ 100 |
| CN[C@H]1CC[C@@H](Oc2ccc(Nc3ncc4cc([C@@H](C)O)nc(NC(C)C)c4n3)nc2)CC1 [Compound 738] | < 10 | ≥ 100 |
| CNC1CCCC1Oc1ccc(Nc2ncc3cc(C(C)O)nc(NC(C)C)c3n2)nc1 (stereo not shown) [Compound 739] | < 10 | ≥ 100 |
| CC(C)Nc1nc([C@@H](C)O)cc2cnc(Nc3ccc(O[C@H]4CC[C@H](N(C)C)CC4)cn3)nc12 [Compound 740] | < 10 | ≥ 100 |
| CC(C)Nc1nc([C@@H](C)O)cc2cnc(Nc3ccc(O[C@H]4CC[C@@H](N(C)C)CC4)cn3)nc12 [Compound 741] | < 10 | ≥ 100 |
| CC(C)Nc1nc(C(C)O)cc2cnc(Nc3ccc(OC4CCCC4N(C)C)cn3)nc12 (stereo not shown) [Compound 742] | < 10 | ≥ 100 |
| CC(=O)c1cc2cnc(Nc3ccc(N4CCNCC4=O)cn3)nc2c(NC(C)C)n1 [Compound 743] | < 10 | ≥ 100 |
